pKi: −log10 of the molar value.
Legend:
Solubility determination = settings: for Sol6: pH 6; for Sol7: pH 7
How it was run: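 Shake-flask style: 10 mg/ml peptide (TFA salt), 0.1 M sodium diphosphate pH 6.4/7.0, 600 rpm, 2 h, RT; filter; dilute 1 mg/ml in 50% MeCN; RP-UPLC, 0–100% B over 2 min, 50 °C. Solubility = sample/control area ratio. Final pH recorded.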

[1] = molecular target: T1, Human Neuropeptide Y2 Receptor (Homo sapiens, UniProt P49146); assay: Radioligand binding competition assay (RLB); settings: Table 3, 125I-PYY(1-36) competition; read-out: Ki
T1 construct: purchased CHEMICON HTS066M
T1 sequence (P49146 1-381): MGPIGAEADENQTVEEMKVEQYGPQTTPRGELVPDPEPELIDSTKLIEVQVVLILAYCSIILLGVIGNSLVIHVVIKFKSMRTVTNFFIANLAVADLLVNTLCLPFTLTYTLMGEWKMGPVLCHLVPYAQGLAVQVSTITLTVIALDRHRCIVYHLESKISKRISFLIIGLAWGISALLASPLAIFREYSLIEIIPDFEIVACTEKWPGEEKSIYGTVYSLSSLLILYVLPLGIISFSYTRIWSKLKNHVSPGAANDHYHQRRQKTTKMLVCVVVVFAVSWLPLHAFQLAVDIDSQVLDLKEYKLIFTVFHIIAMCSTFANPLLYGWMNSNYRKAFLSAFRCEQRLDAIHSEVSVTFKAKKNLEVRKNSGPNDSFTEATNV
How it was run: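 Filtration competition binding on membranes from cells expressing the receptor, 0.5 μg protein/well, in 50 mM HEPES, 5 mM MgCl2, 1 mM CaCl2, pH 7.4, with 0.2% ovalbumin. Incubation ran 2 h at room temperature, followed by GF/C filtration and scintillation counting. IC50 came from nonlinear sigmoidal fits.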

| Sol6 (Solubility determination) [mg/mL] | Sol7 (Solubility determination) [mg/mL] | pKi [1] | Compound |
| --- | --- | --- | --- |
| 9.6 | 9.7 | 8.33 | CC(C)CC(=O)N[C@@H](C)C(=O)N1CCC[C@H]1C(=O)N[C@@H](C)C(=O)N[C@@H](CCCCNC(=O)CCCCCNC(=O)CC[C@H](NC(=O)CCCCCCCCCCCCCCCCC(=O)O)C(=O)O)C(=O)N1CCC[C@H]1C(=O)N[C@@H](CCC(=O)O)C(=O)N[C@@H](CCC(=O)O)C(=O)N[C@@H](CC(=O)O)C(=O)N[C@@H](C)C(=O)N[C@@H](CCC(=O)O)C(=O)N1CCC[C@H]1C(=O)N[C@@H](CCC(=O)O)C(=O)N[C@@H](CCC(=O)O)C(=O)N[C@@H](CC(C)C)C(=O)N[C@@H](CCC(N)=O)C(=O)N[C@@H](CCCNC(=N)N)C(=O)N[C@@H](Cc1ccc(O)cc1)C(=O)N[C@@H](Cc1ccc(O)cc1)C(=O)N[C@H](C(=O)N[C@@H](CO)C(=O)N[C@@H](CC(C)C)C(=O)N[C@@H](CCCNC(=N)N)C(=O)N[C@@H](Cc1c[nH]cn1)C(=O)N[C@@H](Cc1ccc(O)cc1)C(=O)N[C@@H](Cc1ccc(O)cc1)C(=O)N[C@@H](CC(N)=O)C(=O)N[C@@H](Cc1c[nH]c2ccccc12)C(=O)N[C@@H](CC(C)C)C(=O)N[C@H](C(=O)N[C@@H](CCCNC(=N)N)C(=O)N[C@@H](CCC(N)=O)C(=O)N[C@@H](CCCNC(=N)N)C(=O)N[C@@H](Cc1ccc(O)cc1)C(N)=O)[C@@H](C)O)C(C)C [Compound 133, N{alpha-4}-(3-methylbutanoyl)-N{epsilon-7}-(6-[(4S)-4-carboxy-4-(17-carboxyheptadecanamido)butanamido]hexanoyl)-[4A,6A,7K,9E,13E,18Q,22V,28Y,30W,31L]-hPYY(4-36)] |
| 10.0 | 10.0 | 8.56 | CC(C)CC(=O)N[C@@H](C)C(=O)N1CCC[C@H]1C(=O)N[C@@H](CCC(=O)O)C(=O)N[C@@H](CCCCNC(=O)CCCCCNC(=O)CC[C@H](NC(=O)CCCCCCCCCCCCCCCCC(=O)O)C(=O)O)C(=O)N1CCC[C@H]1C(=O)N[C@@H](CCC(=O)O)C(=O)N[C@@H](CCC(=O)O)C(=O)N[C@@H](CC(=O)O)C(=O)N[C@@H](C)C(=O)N[C@@H](CO)C(=O)N1CCC[C@H]1C(=O)N[C@@H](CCC(=O)O)C(=O)N[C@@H](C)C(=O)N[C@@H](CC(C)C)C(=O)N[C@@H](CCC(N)=O)C(=O)N[C@@H](CCC(=O)O)C(=O)N[C@@H](Cc1ccc(O)cc1)C(=O)N[C@@H](Cc1ccc(O)cc1)C(=O)N[C@H](C(=O)N[C@@H](CO)C(=O)N[C@@H](CC(C)C)C(=O)N[C@@H](CCCNC(=N)N)C(=O)N[C@@H](Cc1c[nH]cn1)C(=O)N[C@@H](Cc1ccc(O)cc1)C(=O)N[C@@H](Cc1ccc(O)cc1)C(=O)N[C@@H](CC(N)=O)C(=O)N[C@@H](Cc1c[nH]c2ccccc12)C(=O)N[C@@H](CC(C)C)C(=O)N[C@H](C(=O)N[C@@H](CCCNC(=N)N)C(=O)N[C@@H](CCC(N)=O)C(=O)N[C@@H](CCCNC(=N)N)C(=O)N[C@@H](Cc1ccc(O)cc1)C(N)=O)[C@@H](C)O)C(C)C [Compound 39, N{alpha-4}-(3-methylbutanoyl)-N{epsilon-7}-(6-[(4S)-4-carboxy-4-(17-carboxyheptadecanamido)butanamido]hexanoyl)[4A,7K,9E,16A,18Q,19E,22V,28Y,30W,31L]-hPYY(4-36)] |
| 8.6 | 8.0 | 8.56 | CC(C)CC(=O)N[C@@H](C)C(=O)N1CCC[C@H]1C(=O)N[C@@H](CCC(=O)O)C(=O)N[C@@H](CCCCNC(=O)CCCCCNC(=O)CC[C@H](NC(=O)CCCCCCCCCCCCCCCCC(=O)O)C(=O)O)C(=O)N1CCC[C@H]1C(=O)N[C@@H](CCC(=O)O)C(=O)N[C@@H](C)C(=O)N[C@@H](CC(=O)O)C(=O)N[C@@H](C)C(=O)N[C@@H](CO)C(=O)N[C@@H](CCC(=O)O)C(=O)N[C@@H](CCC(=O)O)C(=O)N[C@@H](CCC(=O)O)C(=O)N[C@@H](CC(C)C)C(=O)N[C@@H](CCC(N)=O)C(=O)N[C@@H](CCCNC(=N)N)C(=O)N[C@@H](Cc1ccc(O)cc1)C(=O)N[C@@H](Cc1ccc(O)cc1)C(=O)N[C@H](C(=O)N[C@@H](CO)C(=O)N[C@@H](CC(C)C)C(=O)N[C@@H](CCCNC(=N)N)C(=O)N[C@@H](Cc1c[nH]cn1)C(=O)N[C@@H](Cc1ccc(O)cc1)C(=O)N[C@@H](Cc1ccc(O)cc1)C(=O)N[C@@H](CC(N)=O)C(=O)N[C@@H](Cc1c[nH]c2ccccc12)C(=O)N[C@@H](CC(C)C)C(=O)N[C@H](C(=O)N[C@@H](CCCNC(=N)N)C(=O)N[C@@H](CCC(N)=O)C(=O)N[C@@H](CCCNC(=N)N)C(=O)N[C@@H](Cc1ccc(O)cc1)C(N)=O)[C@@H](C)O)C(C)C [Compound 108, N{alpha-4}-(3-methylbutanoyl)-N{epsilon-7}-(6-[(4S)-4-carboxy-4-(17-carboxyheptadecanamido)butanamido]hexanoyl)-[4A,7K,9E,10A,14E,18Q,22V,28Y,30W,31L]-hPYY(4-36)] |
| 0.0 | 0.4 | 8.47 | CC[C@H](C)[C@H](NC(=O)[C@H](CCC(=O)O)NC(=O)[C@H](CCC(=O)O)NC(=O)[C@@H]1CCCN1C(=O)[C@@H](NC(=O)[C@H](C)NC(=O)[C@H](C)NC(=O)[C@H](C)NC(=O)[C@H](CCC(=O)O)NC(=O)[C@@H]1CCCN1C(=O)[C@H](CCCCNC(=O)CCCCCNC(=O)CC[C@H](NC(=O)CCCCCCCCCCCCCCCCC(=O)O)C(=O)O)NC(=O)[C@H](CCC(=O)O)NC(=O)[C@@H]1CCCN1C(=O)[C@H](C)NC(=O)CC(C)C)[C@@H](C)O)C(=O)N[C@@H](CCC(N)=O)C(=O)N[C@@H](CCCNC(=N)N)C(=O)N[C@@H](Cc1ccc(O)cc1)C(=O)N[C@@H](Cc1ccc(O)cc1)C(=O)N[C@H](C(=O)N[C@@H](C)C(=O)N[C@@H](CC(C)C)C(=O)N[C@@H](CCCNC(=N)N)C(=O)N[C@@H](Cc1c[nH]cn1)C(=O)N[C@@H](Cc1ccc(O)cc1)C(=O)N[C@@H](Cc1ccc(O)cc1)C(=O)N[C@@H](CC(N)=O)C(=O)N[C@@H](Cc1c[nH]c2ccccc12)C(=O)N[C@@H](CC(C)C)C(=O)N[C@H](C(=O)N[C@@H](CCCNC(=N)N)C(=O)N[C@@H](CCC(N)=O)C(=O)N[C@@H](CCCNC(=N)N)C(=O)N[C@@H](Cc1ccc(O)cc1)C(N)=O)[C@@H](C)O)C(C)C [Compound 178, N{alpha-4}-(3-methylbutanoyl)-N{epsilon-7}-(6-[(4S)-4-carboxy-4-(17-carboxyheptadecanamido)butanamido]hexanoyl)-[4A,7K,9E,10A,11A,13T,17I,18Q,22V,23A,28Y,30W,31L]-hPYY(4-36)] |

— patent publication US12391737B2, “Soluble NPY2 receptor agonists” (Boehringer Ingelheim International GmbH, priority 2020, dated 2025)
